In paper PMC8584173, “The Cytotoxic Effect of Copper (II) Complexes with Halogenated 1,3-Disubstituted Arylthioureas on Cancer and Bacterial Cells” (International Journal of Molecular Sciences, 2021):

What was measured:
[1] = system: Candida species; experiment: MIC, Candida species; type: cell-based; settings: studied Candida species
Procedure: (§1) The antimicrobial activity of the compounds was tested on Gram-positive bacteria (Staphylococcus aureus NCTC 4163, Staphylococcus aureus ATCC 25923, Staphylococcus aureus ATCC 6538, Staphylococcus aureus ATCC 29213, Staphylococcus epidermidis ATCC 12228, Staphylococcus epidermidis ATCC 35984), Gram-negative rods (Escherichia coli ATCC 10538, Escherichia coli ATCC 25922, Pseudomonas aeruginosa ATCC 15442, Pseudomonas aeruginosa ATCC 27863) and yeasts (Candida albicans ATCC 10231, Candida albicans ATCC 90028, Candida parapsilosis ATCC 22019). Hospital methicillin-resistant strains of Staphylococcus aureus and Staphylococcus epidermidis were obtained from the collection of the Department of Pharmaceutical Microbiology, Medical University of Warsaw, Poland.
(§2) Antifungal activities were assessed using Mueller–Hinton agar + 2% glucose and 0.5 µg/mL methylene blue dye medium. Sterile filter paper discs (9 mm diameter, Whatman Number 3 chromatography paper) were dripped with tested compound solutions (in dimethylsulfoxide, DMSO) to load 400 μg of a given compound per disc. Dry discs were placed on the surface of appropriate agar medium. The results (diameter of the growth inhibition zone) were read after 18 h of incubation at 35 °C. Minimal inhibitory concentration (MIC) was tested by the twofold serial microdilution method (in 96-well microtiter plates) using Mueller–Hinton broth medium (Beckton Dickinson) for bacteria or RPMI-1640 medium for Candida species, according to CLSI guidelines. The stock solution of tested agent was prepared in DMSO and diluted in sterile water. […] The final inoculum of all studied microorganisms was 10^5 CFU/ mL^−1 (colony forming units per ml). Minimal inhibitory concentrations (the lowest concentration of a tested agent that prevents visible growth of a microorganism) were read after 18 h (bacteria) or 24 h (yeasts) of incubation at 35 °C.

[2] = system: PC3 cells; experiment: Annexin V-FITC/PI flow cytometry, PC3; type: cell-based, human; settings: PC3, IC50 dose, 72 h
Procedure: The cells were cultured and harvested under the conditions described in the cell culture section. […] The effect of these compounds on the process of early and late apoptosis and necrosis was determined, as described previously, by dual staining with annexin V-FITC and propidium iodide according to manufacturer’s protocol (Becton Dickinson). The cells that were annexin V-FITC positive and PI-negative were identified as early apoptotic and annexin V-FITC and PI-positive as late apoptotic or necrotic.

[3] = system: Peroxiredoxin-1 (PRDX1_HUMAN); experiment: LC–MS proteome analysis, PRDX1; type: cell-based, Homo sapiens; settings: IC50 concentration, % of control
Procedure: (§3) Enzymes involved in oxidoreductive potential were analyzed in the cell lysates obtained after treatment cells with selected conjugates for 24 h. Cells were washed with phosphate-buffered saline (PBS) and harvested, then centrifuged at 1000× g for 10 min. Then, lysis buffer (containing protease inhibitor, 1% RIPA Lysis and Extraction Buffer (ThermoFisher)) and cold PBS were added, and samples were sonicated three times in ice bath. Next, the cell lysates were centrifuged at 14,000× g at 4 °C for 15 min, and then supernatants were stored at […] before use. Protein concentration was measured by the Bradford method.
(§4) Normalized protein concentrations (5 µg) from cell lysate were precipitated by ice cold (–20 °C) acetonitrile (ACN, Merck, in ratio 1:4). Then, samples were centrifuged (–9 °C, 30 min., 18,000× g), the supernatant was discarded and ACN excess was evaporated using a vacuum centrifuge (5 min., room temp.). Protein pellet was dissolved in 40 mM ammonium bicarbonate. An amount of 500 mM dithiothreitol (DTT, with final concentration 20 mM) and 1 M iodoacetamide (IAA, with final concentration 40 mM) were used for reduction and alkylation processes. After 16 h of incubation in 37 °C with Trypsin Gold (Promega), digested protein samples were diluted with 0.1% formic acid (ThermoFisher) and centrifuged (+2 °C, 30 min, 18,000× g).
(§5) LC–MS analysis was carried out with the use of nanoUHPLC (nanoElute, Bruker) coupled by CaptiveSpray (Bruker) to ESI-Q-TOF mass spectrometer (Compact, Bruker). Two-column separation method was used, i.e., pre-column (300 µm × 5 mm, C18 PepMap 100, 5 µm, 100Å, Thermo Scientific) and Aurora separation column with CSI fitting (75 µm × 250 mm, C18 1.6 µm) in gradient 2% B to 35% B in 90 min with the 300 nL/min flow rate. Mobile phases (A) 0.1% formic acid in water and (B) 0.1% formic acid in ACN were used.
(§6) Sample ionizations were performed at a gas flow of 3.0 L/min, temperature of 150 °C and voltage of the capillary at 1600 V. The quadrupole energy was fixed to 5.0 eV and collision chamber energy 7.0 eV, with an ion transfer time of 90 µs. The ions were analyzed in the positive polarity mode in the range 150–2200 m/z, with the acquisition frequency of the 1 Hz spectrum, as well as with the autoMS/MS system.
(§7) The collected spectra were analyzed and calibrated using DataAnalysis software (Bruker) and then identified in ProteinScape (Bruker) by the MASCOT server. Protein identification was conducted using the online SwissProt and NCBIprot databases, and their references and biological significance were identified using Reactome.org, String.org and KEGG.

[4] = system: PC3 cells; experiment: LDH release assay, PC3; type: cell-based, human; settings: 72 h
Procedure: (§8) The presence of lactate dehydrogenase (LDH) in culture medium indicates a disturbance of the integrity of the cellular membrane. The LDH activity was performed after 72 h incubation of cells (1 × 10^4 cells per well) in 96-well plates with selected compounds according to manufacturer’s protocol (Roche Diagnostics, Germany), as was described by Chrzanowska et al.. Compound mediated cytotoxicity was determined using equation: ((A test sample−A low control)/ (A high control−A low control)) × 100% (A-absorbance), where “low control” means cells in medium with 2% FBS without tested compounds, and “high control” means cells incubated in medium with 2% FBS and 1% Triton X-100 (100% LDH release). The cytotoxicity was expressed as percentage of LDH release as compared with the maximum release of LDH from Triton-X-100-treated cells.

[5] = system: SW480 cells; experiment: LDH release assay, SW480; type: cell-based, human; settings: 72 h
Procedure: as §8

[6] = system: SW620 cells; experiment: LDH release assay, SW620; type: cell-based, human; settings: 72 h
Procedure: as §8

[7] = system: Glutathione S-transferase P (GSTP1_HUMAN); experiment: LC–MS proteome analysis, GSTP1; type: cell-based, Homo sapiens; settings: IC50 concentration, % of control
Procedure: as §3, §4, §5, §6, §7

[8] = system: hospital S. aureus (MRSA); experiment: MIC, hospital S. aureus; type: cell-based, Staphylococcus aureus; settings: for times stronger / more potent than ciprofloxacin: clinical S. aureus rods (six for 1–4, 7, 8)
Procedure: as §1, §2

Structure (SMILES): O=[N+]([O-])c1cc([N+]2=C(Nc3cccc(Br)c3)[S][Cu-2]23[S]C(Nc2cccc(Br)c2)=[N+]3c2ccc(Cl)c([N+](=O)[O-])c2)ccc1Cl [Compound 2, Copper (II) complex with 1-(3-bromophenyl)-3-(4-chloro-3-nitrophenyl)thiourea]
- growth inhibitory dose [1]: 64 µg/mL

Structure (SMILES): O=[N+]([O-])c1cc([N+]2=C(Nc3ccc(I)cc3)[S][Cu-2]23[S]C(Nc2ccc(I)cc2)=[N+]3c2ccc(Cl)c([N+](=O)[O-])c2)ccc1Cl [Compound 8, Copper (II) complex with 1-(4-iodophenyl)-3-(4-chloro-3-nitrophenyl)thiourea]
- early apoptosis, % of cells [2]: 45.7% ± 3.3%
- Protein Intensity, % (PRDX1) ([3]; PC3, 24 h): 52.3%
- Protein Intensity, % (PRDX1) ([3]; SW480, 24 h): 84.4%
- Protein Intensity, % (PRDX1) ([3]; SW620, 24 h): 93.5%
- LDH release ([4]; PC3, 10 μM): 27.2%
- LDH release ([4]; PC3, 40 μM): 56.4%
- LDH release ([4]; PC3, 60 μM): 64%
- LDH release ([5]; SW480, 20 μM): 42%
- LDH release ([5]; SW480, 40 μM): 46.4%
- LDH release ([5]; SW480, 60 μM): 58%
- LDH release ([6]; SW620, 10 μM): 23%
- LDH release ([6]; SW620, 60 μM): 42.4%
- Protein Intensity, % (GSTP1) ([7]; PC3, 24 h): 64.1%
- Protein Intensity, % (GSTP1) ([7]; SW480, 24 h): 83.0%
- Protein Intensity, % (GSTP1) ([7]; SW620, 24 h): 57.5%
- growth inhibitory dose [1]: 64 µg/mL

Structure (SMILES): O=[N+]([O-])c1cc([N+]2=C(Nc3ccccc3F)[S][Cu-2]23[S]C(Nc2ccccc2F)=[N+]3c2ccc(Cl)c([N+](=O)[O-])c2)ccc1Cl [Compound 7, Copper (II) complex with 1-(2-fluorophenyl)-3-(4-chloro-3-nitrophenyl)thiourea]
- early apoptosis, % of cells [2]: one third
- Protein Intensity, % (PRDX1) ([3]; PC3, 24 h): 46.5%
- Protein Intensity, % (PRDX1) ([3]; SW480, 24 h): 71.6%
- Protein Intensity, % (PRDX1) ([3]; SW620, 24 h): 83.2%
- LDH release ([6]; SW620, 60 μM): 30.2%
- Protein Intensity, % (GSTP1) ([7]; PC3, 24 h): 35.8%
- Protein Intensity, % (GSTP1) ([7]; SW480, 24 h): 80.9%
- Protein Intensity, % (GSTP1) ([7]; SW620, 24 h): 67.3%

Structure (SMILES): O=[N+]([O-])c1cc(NC2=[N+](c3ccc(Cl)c([N+](=O)[O-])c3)[Cu-2]3([S]2)[S]C(Nc2ccc(Cl)c([N+](=O)[O-])c2)=[N+]3c2ccc(Cl)c([N+](=O)[O-])c2)ccc1Cl [Compound 6, Copper (II) complex with 1,3-bis(4-chloro-3-nitrophenyl)thiourea]
- times stronger / more potent than ciprofloxacin [8]: 4–16 times
- growth inhibitory dose [1]: 64 µg/mL

Structure (SMILES): O=[N+]([O-])c1cc([N+]2=C(Nc3ccc(Br)cc3)[S][Cu-2]23[S]C(Nc2ccc(Br)cc2)=[N+]3c2ccc(Cl)c([N+](=O)[O-])c2)ccc1Cl [Compound 3, Copper (II) complex with 1-(4-bromophenyl)-3-(4-chloro-3-nitrophenyl)thiourea]
- early apoptosis, % of cells [2]: 45.5% ± 3.5%
- Protein Intensity, % (PRDX1) ([3]; PC3, 24 h): 47.8%
- Protein Intensity, % (PRDX1) ([3]; SW480, 24 h): 88.5%
- Protein Intensity, % (PRDX1) ([3]; SW620, 24 h): 89.0%
- Protein Intensity, % (GSTP1) ([7]; PC3, 24 h): 51.1%
- Protein Intensity, % (GSTP1) ([7]; SW480, 24 h): 75.9%
- Protein Intensity, % (GSTP1) ([7]; SW620, 24 h): 64.5%
- MIC ([8]; all evaluated hospital S. aureus): 4 µg/mL
- growth inhibitory dose [1]: 64 µg/mL

Structure (SMILES): O=[N+]([O-])c1cc([N+]2=C(Nc3ccc(Cl)c(Cl)c3)[S][Cu-2]23[S]C(Nc2ccc(Cl)c(Cl)c2)=[N+]3c2ccc(Cl)c([N+](=O)[O-])c2)ccc1Cl [Compound 5, Copper (II) complex with 1-(4-chloro-3-nitrophenyl)-3-(3,4-dichlorophenyl)thiourea]
- times stronger / more potent than ciprofloxacin [8]: 4–16 times

Structure (SMILES): O=[N+]([O-])c1cc([N+]2=C(Nc3ccccc3Br)[S][Cu-2]23[S]C(Nc2ccccc2Br)=[N+]3c2ccc(Cl)c([N+](=O)[O-])c2)ccc1Cl [Compound 1, Copper (II) complex with 1-(2-bromophenyl)-3-(4-chloro-3-nitrophenyl)thiourea]
- early apoptosis, % of cells [2]: one third
- Protein Intensity, % (PRDX1) ([3]; PC3, 24 h): 73.9%
- Protein Intensity, % (PRDX1) ([3]; SW480, 24 h): 95.9%
- Protein Intensity, % (PRDX1) ([3]; SW620, 24 h): 96.1%
- LDH release ([6]; SW620, 10 μM): 22%
- LDH release ([6]; SW620, 60 μM): 48%
- Protein Intensity, % (GSTP1) ([7]; PC3, 24 h): 95.0%
- Protein Intensity, % (GSTP1) ([7]; SW480, 24 h): 84.8%
- Protein Intensity, % (GSTP1) ([7]; SW620, 24 h): 74.4%
